Eleven compounds from ChEMBL document CHEMBL1142463 (Bioorg Med Chem Lett, 2008) can be followed below.

Assay [1] addresses T1, Phospholipase A2, membrane associated (Mus musculus, UniProt P31482).
T1 sequence (P31482 whole entry): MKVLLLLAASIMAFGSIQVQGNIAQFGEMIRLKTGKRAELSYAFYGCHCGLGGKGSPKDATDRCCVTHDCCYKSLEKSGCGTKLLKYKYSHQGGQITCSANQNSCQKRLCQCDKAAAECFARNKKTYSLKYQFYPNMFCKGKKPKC
As to the kind of experiment: Inhibition of mouse sPLA2 group 2A.

Assay [2] has as its target T2, Phospholipase A2 group V (Mus musculus, UniProt P97391).
T2 sequence (P97391 whole entry): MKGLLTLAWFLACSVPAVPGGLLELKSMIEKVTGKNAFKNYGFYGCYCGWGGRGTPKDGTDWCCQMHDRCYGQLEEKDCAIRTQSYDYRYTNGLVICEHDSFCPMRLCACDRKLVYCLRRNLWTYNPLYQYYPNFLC
As to the kind of experiment: Inhibition of mouse sPLA2 group 5.

In assay [3] the target is T3, Group 10 secretory phospholipase A2 (Mus musculus, UniProt Q9QXX3).
T3 sequence (Q9QXX3 whole entry): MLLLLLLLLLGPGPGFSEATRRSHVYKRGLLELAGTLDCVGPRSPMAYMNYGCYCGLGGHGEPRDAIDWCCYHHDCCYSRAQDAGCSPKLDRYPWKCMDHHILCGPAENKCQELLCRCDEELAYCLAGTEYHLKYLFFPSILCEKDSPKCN
Nature of the assay: Inhibition of mouse sPLA2 group 10.

Assay [4] concerns the target T4, Phospholipase A2 group V (Homo sapiens, UniProt P39877).
T4 sequence (P39877 whole entry): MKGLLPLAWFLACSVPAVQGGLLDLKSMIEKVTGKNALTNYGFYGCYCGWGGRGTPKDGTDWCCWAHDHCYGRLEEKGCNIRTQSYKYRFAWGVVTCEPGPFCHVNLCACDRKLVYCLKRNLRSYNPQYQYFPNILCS
As to the kind of experiment: Inhibition of human sPLA2 group 5.

The target in assay [5] is T5, Group 10 secretory phospholipase A2 (Homo sapiens, UniProt O15496).
T5 sequence (O15496 whole entry): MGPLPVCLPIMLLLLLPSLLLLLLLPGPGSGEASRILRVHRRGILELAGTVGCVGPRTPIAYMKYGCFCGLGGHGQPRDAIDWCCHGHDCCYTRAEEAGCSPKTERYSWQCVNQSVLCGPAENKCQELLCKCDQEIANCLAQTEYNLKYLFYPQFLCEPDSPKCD
As to the kind of experiment: Inhibition of human sPLA2 group 10.

Assay [6] has as its target T6, Phospholipase A2, membrane associated (Homo sapiens, UniProt P14555).
T6 sequence (P14555 whole entry): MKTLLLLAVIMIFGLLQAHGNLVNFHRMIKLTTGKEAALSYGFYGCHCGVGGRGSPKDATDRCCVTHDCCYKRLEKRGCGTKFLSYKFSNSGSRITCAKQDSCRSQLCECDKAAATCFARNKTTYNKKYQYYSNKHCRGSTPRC
Nature of the assay: Inhibition of human sPLA2 group 2A.

Assay [7] deals with T7, Phospholipase A2, membrane associated (Rattus norvegicus, UniProt P14423).
T7 sequence (P14423 whole entry): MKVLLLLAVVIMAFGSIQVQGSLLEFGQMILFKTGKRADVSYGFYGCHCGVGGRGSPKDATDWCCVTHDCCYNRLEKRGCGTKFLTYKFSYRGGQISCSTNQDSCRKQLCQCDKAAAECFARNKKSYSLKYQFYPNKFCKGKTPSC
As to the kind of experiment: Inhibition of rat sPLA2 group 2A.

In assay [8] the target is Phospholipase A2, membrane associated (Oryctolagus cuniculus, UniProt P14422). As to the kind of experiment: Inhibition of rabbit sPLA2 group 2A.
Phospholipase A2, membrane associated (Oryctolagus cuniculus, UniProt P14422), sequence (P14422 whole entry): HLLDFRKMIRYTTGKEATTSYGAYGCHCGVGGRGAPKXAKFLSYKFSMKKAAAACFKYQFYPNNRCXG

One may read the IC50 as the concentration needed to halve the response being measured. Higher therefore signals lower potency. With `CCCCCCCCCCCC(=O)c1c(O)c(C(=O)CCCCCCCCCCC)c(O)c(C2CC(c3ccc(O)cc3)Oc3cc(O)ccc32)c1O` (stereo not drawn), the IC50 is 30 nM in assay [1], 520 nM in assay [2] and > 1600 nM in assay [3].

In the case of `CC(=O)c1c(O)c(C)c(O)c(C(C)=O)c1O`, the IC50 in assay [4], in assay [1], in assay [5], in assay [2], in assay [6] and in assay [3] was > 1600 nM each time.

As for `CCCCCCCCCCCCc1c(O)cc(O)c(C(=O)CCCCCCCCCCC)c1O`, the IC50 in assay [4], in assay [1], in assay [5], in assay [2], in assay [6] and in assay [3] was > 1600 nM in each case.

As to `CCCCCCCCCCCCc1c(O)c(C(C)=O)c(O)c(C(C)=O)c1O`, the IC50 in assay [4], in assay [1], in assay [5], in assay [2], in assay [6] and in assay [3] was > 1600 nM in each case.

Turning to `CCCCCCCCCCCC(=O)c1cc(C)cc(C(=O)CCCCCCCCCCC)c1O`, the 50% inhibitory concentration (IC50) in assay [4], in assay [1], in assay [5], in assay [2], in assay [6] and in assay [3] was > 1600 nM throughout.

`CCCCCCCCCCCC(=O)c1c(O)c(C)c(O)c(C(C)=O)c1O`: the half-maximal inhibitory concentration (IC50) in assay [4], in assay [1], in assay [5], in assay [2], in assay [6] and in assay [3] was > 1600 nM each time.

On to `CCCCCCCCCCCC(=O)c1c(O)c(C)c(O)c(C(=O)CCCCCCCCCCC)c1O`, for which the IC50 in assay [4] is 530 nM; in assay [1], 60 nM; in assay [5], > 1600 nM; in assay [2] it was 1600 nM; in assay [6], 690 nM; in assay [7] it was 80 nM. In assay [3], the IC50 is > 1600 nM.

Consider `CCCCCCCCCCCC(=O)c1cc(C(=O)CCCCCCCCCCC)c(O)cc1O`, for which the half-maximal inhibitory concentration (IC50) in assay [4], in assay [1], in assay [5], in assay [2], in assay [6] and in assay [3] was > 1600 nM throughout.

Take `Oc1ccc(C2CCc3ccc(O)cc3O2)cc1` (stereo not drawn): the IC50 in assay [1], in assay [6] and in assay [7] was > 3300 nM in each case.

As to `Cc1c(O)c(C(=O)Cc2ccccc2)c(O)c(C(=O)Cc2ccccc2)c1O`, the half-inhibitory concentration (IC50) in assay [4], in assay [1], in assay [5], in assay [2], in assay [6] and in assay [3] was > 1600 nM in each case.

As to `CCCCCCCCCCCC(=O)c1c(O)cc(O)c(C(=O)CCCCCCCCCCC)c1O` [DIDODECANOYLPHLOROGLUCINOL], the IC50 in assay [4] was 1600 nM; in assay [1], 110 nM; in assay [8], 10 nM; in assay [5] it was > 1600 nM; in assay [2] it was 1600 nM; in assay [6], 1600 nM. Further, the figures for the IC50 in assay [7] and in assay [3] were 90 nM and > 1600 nM, respectively.
